In US10870647B2, “Imidazopyridine derivative, method for preparing same, and pharmaceutical composition containing same as active ingredient for preventing or treating cancer” (DAEGU-GYEONGBUK MEDICAL INNOVATION FOUNDATION, priority 2016, dated 2020) one finds remaining binding data, which are given here for three molecules.

Holding throughout (experiment): Kinase selectivity, scanMAX Kinase assay panel (DiscoverX), % control at 1 uM
What all share (assay type): binding

Assay [1] deals with T1, scanMAX Kinase assay panel (Homo sapiens, UniProt O76039).
T1 construct: purchased DiscoverX
T1 sequence (O76039 1-960): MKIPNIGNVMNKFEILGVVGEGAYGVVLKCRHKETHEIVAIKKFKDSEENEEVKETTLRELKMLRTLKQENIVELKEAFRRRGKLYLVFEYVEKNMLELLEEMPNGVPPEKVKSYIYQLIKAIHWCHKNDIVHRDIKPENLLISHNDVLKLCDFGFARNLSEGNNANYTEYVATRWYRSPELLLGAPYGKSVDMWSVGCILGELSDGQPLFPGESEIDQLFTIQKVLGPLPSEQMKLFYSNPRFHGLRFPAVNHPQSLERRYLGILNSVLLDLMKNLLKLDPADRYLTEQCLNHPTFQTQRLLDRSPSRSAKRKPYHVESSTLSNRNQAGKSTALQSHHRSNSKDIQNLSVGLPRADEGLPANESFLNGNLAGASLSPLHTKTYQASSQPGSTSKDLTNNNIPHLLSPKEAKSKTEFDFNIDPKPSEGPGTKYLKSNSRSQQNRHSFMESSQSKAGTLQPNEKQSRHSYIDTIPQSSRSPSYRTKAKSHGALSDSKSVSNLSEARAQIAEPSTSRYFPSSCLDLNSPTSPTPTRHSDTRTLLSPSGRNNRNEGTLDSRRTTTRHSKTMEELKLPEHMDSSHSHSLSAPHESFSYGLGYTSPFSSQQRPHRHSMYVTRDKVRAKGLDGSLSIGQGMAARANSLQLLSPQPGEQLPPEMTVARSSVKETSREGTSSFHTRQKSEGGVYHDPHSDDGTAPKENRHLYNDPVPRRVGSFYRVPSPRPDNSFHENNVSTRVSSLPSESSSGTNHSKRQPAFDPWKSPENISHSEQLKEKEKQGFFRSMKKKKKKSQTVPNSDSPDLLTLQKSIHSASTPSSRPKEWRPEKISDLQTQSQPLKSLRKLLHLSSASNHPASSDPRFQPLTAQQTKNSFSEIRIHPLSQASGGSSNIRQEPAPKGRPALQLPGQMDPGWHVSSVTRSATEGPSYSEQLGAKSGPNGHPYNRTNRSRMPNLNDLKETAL
Particulars: CDKL5; 1 uM; read-out: Percent Control (%). The gist of the method: (§1)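 Activity was called for kinases showing % control under 35, calculated from compound signal relative to positive and negative controls. Each compound screened at 1 uM against the DiscoverX scanMAX panel.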

Assay [2] addresses T2, scanMAX Kinase assay panel (Homo sapiens, UniProt Q14680).
T2 construct: purchased DiscoverX
Particulars: MELK; 1 uM; read-out: Percent Control (%). The gist of the method: as §1

In assay [3] the target is T3, scanMAX Kinase assay panel (Homo sapiens, UniProt P00519, Y253F).
T3 construct: purchased DiscoverX
Particulars: ABL1 (Y253F)-phosphorylated; 1 uM; read-out: Percent Control (%). The essentials:
as §1

Assay [4] concerns the target T4, scanMAX Kinase assay panel (Homo sapiens, UniProt P00533, T790M).
T4 construct: purchased DiscoverX
Particulars: EGFR (T790M); 1 uM; read-out: Percent Control (%). The essentials:
as §1

Assay [5] addresses T5, scanMAX Kinase assay panel (Homo sapiens, UniProt Q96PN8).
T5 construct: purchased DiscoverX
T5 sequence (Q96PN8 1-268): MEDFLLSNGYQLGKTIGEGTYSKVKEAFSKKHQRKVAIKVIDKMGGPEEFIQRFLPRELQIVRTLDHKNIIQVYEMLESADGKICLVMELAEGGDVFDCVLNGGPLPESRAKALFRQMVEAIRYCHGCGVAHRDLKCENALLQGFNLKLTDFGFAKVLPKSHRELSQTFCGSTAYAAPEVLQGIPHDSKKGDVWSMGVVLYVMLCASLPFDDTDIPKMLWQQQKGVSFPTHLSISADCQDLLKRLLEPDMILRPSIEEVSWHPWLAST
Particulars: TSSK3; 1 uM; read-out: Percent Control (%). The gist of the method: as §1

Assay [6] deals with T6, scanMAX Kinase assay panel (Homo sapiens, UniProt Q9NRH2).
T6 construct: purchased DiscoverX
T6 sequence (Q9NRH2 1-765): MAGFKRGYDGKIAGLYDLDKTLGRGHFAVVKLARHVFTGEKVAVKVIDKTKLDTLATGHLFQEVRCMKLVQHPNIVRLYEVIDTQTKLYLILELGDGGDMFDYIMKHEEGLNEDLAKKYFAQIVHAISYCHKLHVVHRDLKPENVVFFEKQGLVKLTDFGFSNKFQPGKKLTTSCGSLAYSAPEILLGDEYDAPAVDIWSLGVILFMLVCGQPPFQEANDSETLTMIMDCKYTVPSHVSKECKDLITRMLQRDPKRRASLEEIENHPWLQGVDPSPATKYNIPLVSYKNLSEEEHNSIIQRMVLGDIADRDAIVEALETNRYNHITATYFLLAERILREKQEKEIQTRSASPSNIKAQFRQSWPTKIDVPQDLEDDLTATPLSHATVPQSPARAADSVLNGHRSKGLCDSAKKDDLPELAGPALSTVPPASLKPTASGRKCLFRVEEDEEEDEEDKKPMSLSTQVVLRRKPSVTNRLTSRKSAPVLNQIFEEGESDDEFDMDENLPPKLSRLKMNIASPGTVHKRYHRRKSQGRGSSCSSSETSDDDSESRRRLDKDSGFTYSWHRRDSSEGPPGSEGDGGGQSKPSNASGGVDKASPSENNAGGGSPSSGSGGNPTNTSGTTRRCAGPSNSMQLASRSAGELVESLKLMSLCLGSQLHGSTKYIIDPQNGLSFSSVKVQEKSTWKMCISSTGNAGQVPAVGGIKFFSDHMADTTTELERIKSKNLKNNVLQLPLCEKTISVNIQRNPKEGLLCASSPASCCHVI
Particulars: SNRK; 1 uM; read-out: Percent Control (%). The gist of the method:
as §1

T2 sequence (Q14680 whole entry): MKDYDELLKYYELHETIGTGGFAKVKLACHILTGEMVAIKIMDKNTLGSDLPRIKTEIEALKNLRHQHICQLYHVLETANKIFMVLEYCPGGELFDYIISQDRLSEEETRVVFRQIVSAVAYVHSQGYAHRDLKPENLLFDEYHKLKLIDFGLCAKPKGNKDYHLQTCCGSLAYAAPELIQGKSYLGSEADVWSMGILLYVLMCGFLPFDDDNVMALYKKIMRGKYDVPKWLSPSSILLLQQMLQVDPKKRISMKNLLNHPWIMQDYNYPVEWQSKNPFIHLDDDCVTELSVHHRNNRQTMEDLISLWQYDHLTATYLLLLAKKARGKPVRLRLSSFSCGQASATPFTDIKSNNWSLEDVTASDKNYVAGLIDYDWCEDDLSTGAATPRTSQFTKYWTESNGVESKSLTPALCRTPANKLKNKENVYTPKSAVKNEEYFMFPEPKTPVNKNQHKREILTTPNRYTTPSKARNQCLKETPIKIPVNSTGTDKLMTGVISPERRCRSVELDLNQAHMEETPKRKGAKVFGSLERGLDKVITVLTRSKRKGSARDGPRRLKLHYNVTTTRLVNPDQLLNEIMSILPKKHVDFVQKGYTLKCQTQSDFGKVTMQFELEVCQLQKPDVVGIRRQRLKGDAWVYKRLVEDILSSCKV
T4 sequence (P00533 25-1210 T790M): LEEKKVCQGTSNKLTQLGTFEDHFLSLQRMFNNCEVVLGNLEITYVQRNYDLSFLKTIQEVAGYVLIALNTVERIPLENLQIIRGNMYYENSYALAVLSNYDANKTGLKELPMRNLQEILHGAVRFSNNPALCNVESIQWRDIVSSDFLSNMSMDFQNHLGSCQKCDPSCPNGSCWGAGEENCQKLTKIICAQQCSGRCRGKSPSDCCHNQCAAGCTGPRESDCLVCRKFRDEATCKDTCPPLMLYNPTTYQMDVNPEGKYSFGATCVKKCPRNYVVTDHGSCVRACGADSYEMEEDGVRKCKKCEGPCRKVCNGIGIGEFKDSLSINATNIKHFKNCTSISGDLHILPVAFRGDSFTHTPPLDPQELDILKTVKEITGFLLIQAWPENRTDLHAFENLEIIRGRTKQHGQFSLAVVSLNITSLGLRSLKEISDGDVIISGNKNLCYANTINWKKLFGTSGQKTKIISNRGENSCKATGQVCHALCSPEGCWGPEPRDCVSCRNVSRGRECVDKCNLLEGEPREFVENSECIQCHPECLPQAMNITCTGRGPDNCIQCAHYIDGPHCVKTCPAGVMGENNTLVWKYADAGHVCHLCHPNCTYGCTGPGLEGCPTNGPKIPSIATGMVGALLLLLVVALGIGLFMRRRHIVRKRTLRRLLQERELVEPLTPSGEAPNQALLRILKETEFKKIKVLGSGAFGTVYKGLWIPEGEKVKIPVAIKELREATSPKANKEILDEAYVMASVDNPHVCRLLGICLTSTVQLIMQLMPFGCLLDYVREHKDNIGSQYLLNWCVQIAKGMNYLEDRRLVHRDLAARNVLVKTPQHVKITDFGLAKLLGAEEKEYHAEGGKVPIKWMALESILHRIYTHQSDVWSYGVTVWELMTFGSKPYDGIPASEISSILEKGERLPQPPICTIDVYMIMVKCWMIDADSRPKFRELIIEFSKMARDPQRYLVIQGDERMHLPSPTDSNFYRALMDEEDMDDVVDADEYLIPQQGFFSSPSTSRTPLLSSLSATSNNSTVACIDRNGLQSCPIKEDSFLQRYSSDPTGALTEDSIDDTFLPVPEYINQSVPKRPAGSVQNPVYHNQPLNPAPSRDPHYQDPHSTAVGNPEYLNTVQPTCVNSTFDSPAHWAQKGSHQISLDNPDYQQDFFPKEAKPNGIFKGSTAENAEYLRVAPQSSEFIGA

Take `Cc1ccc(C(=O)Nc2ccc(CN3CCN(C)CC3)c(C(F)(F)F)c2)cc1C#Cc1cnc2c(Nc3cnn(C)c3)cccn12` [Example 1, 4-methyl-3-((8-((1-methyl-1H-pyrazol-4-yl)amino)imidazo[1,2-a]pyridin-3-yl)ethynyl)-N-(4-((4-methylpiperazin-1-yl)methyl)-3-(trifluoromethyl)phenyl)benzamide]: the remaining binding at 1 µM amounted to 94% in assay [1]; 9% in assay [2]; 0% in assay [3]; 10% in assay [4]; 95% in assay [5]; 84% in assay [6].
Consider `Cc1cn(-c2cc(NC(=O)c3ccc(C)c(C#Cc4cnc5c(Nc6cnn(C)c6)cccn45)c3)cc(C(F)(F)F)c2)cn1` [Example 12, 4-methyl-N-(3-(4-methyl-1H-imidazol-1-yl)-5-(trifluoromethyl)phenyl)-3-((8-((1-methyl-1H-pyrazol-4-yl)amino)imidazo[1,2-a]pyridin-3-yl)ethynyl)benzamide], for which the remaining binding at 1 µM is 100% in assay [1]; 98% in assay [2]; 10% in assay [3]; 75% in assay [4]; 100% in assay [5]; 100% in assay [6].
On to `Cc1ccc(NC(=O)C2(C(=O)Nc3ccc(F)cc3)CC2)cc1C#Cc1cnc2c(Nc3cnn(C(C)C)c3)cccn12` [Example 78], for which the remaining binding at 1 µM in assay [1] worked out at 92%; in assay [2], 91%; in assay [3], 88%; in assay [4], 100%; in assay [5], 100%; in assay [6] it was 95%.
